SMILES strings stand for the structures. Several values for one entry are separate records, joined by “and”; a condition that tells them apart may be missing. Equal values may be shown once.

The test system of assay [1] is HeLa cervical adenocarcinoma. Briefly: Cell Proliferation Inhibition Assay, Hela (C14 method). The note with it: Homo sapiens, Table 7. The assay is classed as cell-based. The text has this: (§1) Cell Proliferation Inhibition Assay
(§2) The ability of a test compound to inhibit unregulated cell proliferation may be determined by measuring incorporation of ^14C-labelled thymidine into newly synthesized DNA within cell lines derived from carcinomas originating from several tissues. Accordingly, the effect of a test compound on proliferation of cells with a variety of phenotypes may be determined.
(§3) Carcinoma cell lines used include the HeLa cervical adenocarcinoma from the American Type Culture Collection (ATCC Cat. #CCL2), A375 malignant melanoma (ATCC Cat. #CRL-1619), HCT-116 colon carcinoma (ATCC Cat. #CCL-247), SKBR3 breast carcinoma (ATCC Cat. #HTB-30) and BT474 breast carcinoma (ATCC Cat. #HTB-20).
(§4) The carcinoma cells were trypsinized and counted. The cells (3000-8000 count) were added to each well of a 96-well CytoStar tissue culture treated scintillating microplate (Amersham #RPNQ0160) in complete medium (100 μL) and the plate was then incubated in complete medium for 24 hrs at 37° C. in an inert atmosphere containing 5% CO2.
(§5) Test compound (1 μL) in 100% DMSO was added to the plate test-wells with DMSO only added to control-wells. The plate was incubated in complete medium for a second 24 hr period at 37° C. in an atmosphere containing 5% CO2.
(§6) An aliquot of a solution of Methyl ^14C-thymidine (56 mC/mmol) (NEN #NEC568 or AMersham #CFA532) and complete medium (20 uL to provide 0.2 μCl/well) was then added to each well and the plate was incubated for a third 24 hr period at 37° C. in an atmosphere containing 5% CO2.
(§7) The plate contents were then discarded, the plate washed twice with PBS (200 μL) and then PBS (200 μL) was added to each well. The plate was sealed and the degree of methyl ^14C-thymidine incorporation was quantified on a Packard Top Count.
(§8) Cell proliferation of the Hela cell line was measured using the ATP-Lite method as described in the ATP Lite Kit (Perkin-Elmer Kit Number 6106941) or the C^14 method as described above. Cell proliferation of the other cell lines was measured using the C^14 method.

Another assay addresses T1, c-Src kinase (human) (Homo sapiens, UniProt P12931).
T1 construct: purchased Upstate Biotechnology, Lake Placid, N.Y
Put plainly: c-Src Kinase Assay. The class given is biochemical. The note with it: test concentration of 2 μM, multiple values are separate assay results; for c-Src % Inhibition: 2 µM. In a few lines:
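Inhibition was read as 33P incorporation, counted on P30 filtermats, after a 40 min, 30° C reaction. Human c-Src acted on 100 μM Cdc2 peptide with 5 μM ATP (final), pH 7.0 MOPS/MgCl2. Values are percent inhibition at 2 μM compound, or IC50 where determined.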

In another assay the test system is A375 malignant melanoma. Briefly: Cell Proliferation Inhibition Assay, A375 (14C-thymidine). The assay is classed as cell-based. The settings on record: Homo sapiens, A-375.
Excerpt: as §1, §2, §3, §4, §5, §6, §7, §8

The target in a further assay is T2, HER-2 (Homo sapiens, UniProt P04626).
T2 construct: His6 with thrombin site (N); purchased Proqinase (Freiburg, Germany)
Put plainly: HER-2 Kinase Assay. The class given is biochemical. The settings on record: value in parentheses. Put shortly:
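Read-out was scintillation counting of 33P incorporated into biotinylated polyGluTyr captured on streptavidin plates. Reactions ran 1 h at 30 °C with GST-fused HER-2 residues 679–1255, 1 μM ATP, Mn2+ and Mg2+ at pH 7.5; data given as percent inhibition at 1 μM, with IC50 where determined.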

Another assay relates to HCT-116 colon carcinoma. Put plainly: Cell Proliferation Inhibition Assay, HCT-116 (14C-thymidine). The note with it: Homo sapiens, HCT-116 cell proliferation. The class given is cell-based.
Excerpt: as §1, §2, §3, §4, §5, §6, §7, §8

T2 sequence (P04626 679-1255): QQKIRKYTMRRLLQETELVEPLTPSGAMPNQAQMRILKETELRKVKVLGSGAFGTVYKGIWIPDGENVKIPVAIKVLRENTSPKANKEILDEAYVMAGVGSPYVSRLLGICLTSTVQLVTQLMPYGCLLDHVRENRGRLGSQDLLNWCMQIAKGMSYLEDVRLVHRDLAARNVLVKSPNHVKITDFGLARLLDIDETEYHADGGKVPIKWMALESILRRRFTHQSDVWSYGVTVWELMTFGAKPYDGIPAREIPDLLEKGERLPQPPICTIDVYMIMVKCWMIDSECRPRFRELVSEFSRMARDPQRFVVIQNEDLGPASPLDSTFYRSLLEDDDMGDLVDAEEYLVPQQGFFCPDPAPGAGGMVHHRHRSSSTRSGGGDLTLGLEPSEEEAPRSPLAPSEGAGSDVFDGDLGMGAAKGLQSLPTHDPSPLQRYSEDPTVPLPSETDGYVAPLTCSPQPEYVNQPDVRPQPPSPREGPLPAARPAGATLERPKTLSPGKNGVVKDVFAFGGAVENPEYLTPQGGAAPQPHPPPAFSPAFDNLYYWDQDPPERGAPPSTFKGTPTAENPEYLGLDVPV
T1 sequence (P12931 whole entry): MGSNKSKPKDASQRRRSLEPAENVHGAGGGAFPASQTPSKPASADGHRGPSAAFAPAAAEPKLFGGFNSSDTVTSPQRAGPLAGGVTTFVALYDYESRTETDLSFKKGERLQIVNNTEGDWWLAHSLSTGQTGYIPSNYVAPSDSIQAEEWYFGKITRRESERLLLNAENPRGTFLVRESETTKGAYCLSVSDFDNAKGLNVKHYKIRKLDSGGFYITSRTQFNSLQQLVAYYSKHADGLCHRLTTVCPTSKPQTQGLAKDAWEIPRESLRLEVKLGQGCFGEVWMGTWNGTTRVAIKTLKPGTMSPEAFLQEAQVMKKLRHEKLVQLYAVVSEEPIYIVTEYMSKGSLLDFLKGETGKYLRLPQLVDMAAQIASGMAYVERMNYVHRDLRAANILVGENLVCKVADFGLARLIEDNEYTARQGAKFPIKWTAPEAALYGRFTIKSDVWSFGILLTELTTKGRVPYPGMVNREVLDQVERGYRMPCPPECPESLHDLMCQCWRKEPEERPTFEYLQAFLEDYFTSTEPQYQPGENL

As usually defined, the IC50 is the concentration that inhibits the measured activity by half. The term inhibition denotes the relative decrease from the control value, in per cent. As to `O=C(NCCN1CCOCC1)c1sc2ncnc3c2c1NC(=O)N3c1ccc2c(ccn2Cc2cccc(F)c2)c1` [Cpd 93, 5-[1-(3-fluoro-benzyl)-1H-indol-5-yl]-4-oxo-4,5-dihydro-3H-1-thia-3,5,6,8-tetraaza-acenaphthylene-2-carboxylic acid (2-morpholin-4-yl-ethyl)-amide], the IC50 was no less than 10 µM in assay [1], 10 µM in the assay on A375 malignant melanoma, 779 nM on HER-2 and 10 µM in the assay on HCT-116 colon carcinoma. Moreover, the inhibition at 2 µM against c-Src kinase (human) amounted to 41%.
As for `O=C(Nc1ccc(N2CCOCC2)cc1)c1sc2ncnc3c2c1NC(=O)N3c1ccc2c(ccn2Cc2cccc(F)c2)c1` [Cpd 94, 5-[1-(3-fluoro-benzyl)-1H-indol-5-yl]-4-oxo-4,5-dihydro-3H-1-thia-3,5,6,8-tetraaza-acenaphthylene-2-carboxylic acid (4-morpholin-4-yl-phenyl)-amide], the IC50 was no less than 100 µM in assay [1], 100 µM in the assay on A375 malignant melanoma, roughly 10000 nM on HER-2 and 100 µM in the assay with HCT-116 colon carcinoma. For the same molecule, at c-Src kinase (human), the inhibition at 2 µM is -39%.
Turning to `O=C(NCCCN1CCOCC1)c1sc2ncnc3c2c1NC(=O)N3c1ccc2c(ccn2Cc2cccc(F)c2)c1` [Cpd 95, 5-[1-(3-fluoro-benzyl)-1H-indol-5-yl]-4-oxo-4,5-dihydro-3H-1-thia-3,5,6,8-tetraaza-acenaphthylene-2-carboxylic acid (3-morpholin-4-yl-propyl)-amide], the half-inhibitory concentration (IC50) in assay [1] is no less than 10 µM; in the assay on A375 malignant melanoma, 10 µM; on HER-2, 350 nM; in the assay with HCT-116 colon carcinoma, 10 µM. Further, the inhibition at 2 µM on c-Src kinase (human) is -15%.
On to `CCOC(=O)c1sc2ncnc3c2c1NC(=O)N3c1ccc(C)c(Br)c1` [Cpd 102, 5-(3-bromo-4-methyl-phenyl)-4-oxo-4,5-dihydro-3H-1-thia-3,5,6,8-tetraaza-acenaphthylene-2-carboxylic acid ethyl ester], for which the half-inhibitory concentration (IC50) in assay [1] was no less than 100 µM; in the assay on A375 malignant melanoma it was 100 µM; on HER-2, greater than 100000 nM; with HCT-116 colon carcinoma, 100 µM. At c-Src kinase (human), the “c-Src % Inhibition” value was 3% and 12%.
Turning to `CCOC(=O)c1sc2ncnc3c2c1NC(=O)N3c1cc(Br)ccc1C` [Cpd 103, 5-(5-bromo-2-methyl-phenyl)-4-oxo-4,5-dihydro-3H-1-thia-3,5,6,8-tetraaza-acenaphthylene-2-carboxylic acid ethyl ester], the IC50 in assay [1] is no less than 100 µM; in the assay with A375 malignant melanoma it was 100 µM; on HER-2, greater than 100000 nM; in the assay on HCT-116 colon carcinoma, 100 µM. Also, at c-Src kinase (human), the inhibition at 2 µM was 14%. On c-Src kinase (human), the “c-Src % Inhibition” value turned out to be 18%.
As to `Cc1ccc(N2C(=O)Nc3c(C(=O)Nc4ccc(CN5CCOCC5)cc4)sc4ncnc2c34)cc1Br` [Cpd 108, 5-(3-bromo-4-methyl-phenyl)-4-oxo-4,5-dihydro-3H-1-thia-3,5,6,8-tetraaza-acenaphthylene-2-carboxylic acid (4-morpholin-4-ylmethyl-phenyl)-amide], the IC50 in assay [1] is no less than 100 µM; in the assay with A375 malignant melanoma, 100 µM; at HER-2 it was 148 nM; in the assay with HCT-116 colon carcinoma, 100 µM. The inhibition at 2 µM against c-Src kinase (human) is 19%.
In the case of `Cc1ccc(Br)cc1N1C(=O)Nc2c(C(=O)Nc3ccc(CN4CCOCC4)cc3)sc3ncnc1c23` [Cpd 109, 5-(5-bromo-2-methyl-phenyl)-4-oxo-4,5-dihydro-3H-1-thia-3,5,6,8-tetraaza-acenaphthylene-2-carboxylic acid (4-morpholin-4-ylmethyl-phenyl)-amide], the IC50 in assay [1] is no less than 10 µM; with A375 malignant melanoma it was 10 µM; at HER-2 it was 684 nM; in the assay with HCT-116 colon carcinoma, 10 µM. For the same molecule, on c-Src kinase (human), the inhibition at 2 µM amounted to 31%.
As to `O=C(Nc1ccc(CN2CCOCC2)cc1)c1sc2ncnc3c2c1NC(=O)N3c1ccc(Oc2ccc(F)cc2)cc1` [Cpd 110, 5-[4-(4-fluoro-phenoxy)-phenyl]-4-oxo-4,5-dihydro-3H-1-thia-3,5,6,8-tetraaza-acenaphthylene-2-carboxylic acid (4-morpholin-4-ylmethyl-phenyl)-amide], the IC50 in assay [1] came to 15.5 µM; with A375 malignant melanoma it was 100 µM; on HER-2, 161 nM; with HCT-116 colon carcinoma, 10 µM. Further, the inhibition at 2 µM on c-Src kinase (human) amounted to 16%.
In the same order, the values of `Cc1ccc(N2C(=O)Nc3c(C(=O)NC4CCN(C)CC4)sc4ncnc2c34)cc1Br` [Cpd 116, 5-(3-bromo-4-methyl-phenyl)-4-oxo-4,5-dihydro-3H-1-thia-3,5,6,8-tetraaza-acenaphthylene-2-carboxylic acid (1-methyl-piperidin-4-yl)-amide] are no less than 10 µM, 10 µM, 1700 nM, 10 µM and -7%.
In the same order, the values of `Cc1ccc(Br)cc1N1C(=O)Nc2c(C(=O)NC3CCN(C)CC3)sc3ncnc1c23` [Cpd 117, 5-(5-bromo-2-methyl-phenyl)-4-oxo-4,5-dihydro-3H-1-thia-3,5,6,8-tetraaza-acenaphthylene-2-carboxylic acid (1-methyl-piperidin-4-yl)-amide] are no less than 100 µM, 100 µM, 13000 nM, 100 µM and 25%.
As for `CN1CCC(NC(=O)c2sc3ncnc4c3c2NC(=O)N4c2ccc(Oc3ccc(F)cc3)cc2)CC1` [Cpd 118, 5-[4-(4-fluoro-phenoxy)-phenyl]-4-oxo-4,5-dihydro-3H-1-thia-3,5,6,8-tetraaza-acenaphthylene-2-carboxylic acid (1-methyl-piperidin-4-yl)-amide], the IC50 in assay [1] was no less than 10 µM; with A375 malignant melanoma it was 10 µM; at HER-2 it was roughly 100000 nM; in the assay with HCT-116 colon carcinoma it was 10 µM. In addition, at c-Src kinase (human), the inhibition at 2 µM was found to be 15%.

Values taken from patent US7579356B2, “Thia-tetraazaacenaphthylene kinase inhibitors” (Janssen Pharmaceutica NV, priority 2005, dated 2009).
